Assay results as given in article PMC9115581, “Synthesis and Biological Evaluations of Betulinic Acid Derivatives With Inhibitory Activity on Hyaluronidase and Anti-Inflammatory Effects Against Hyaluronic Acid Fragment Induced Inflammation” (Frontiers in Chemistry, 2022).

Legend:
[1] = test system: LPS-stimulated RAW264.7 cells; experiment: NO production (Griess assay) in LPS-stimulated RAW264.7 cells; type: cell-based, murine; details: for Reduction of LPS-stimulated NO production: 10 μM, LPS 1 μg/mL; for Decrease of NO production as compared to parent compound BA: LPS-stimulated
Procedure: (§1) NO concentration was determined by the Griess assay according to a previous report ([Ma et al., 2016]), RAW264.7 and BV-2 cells (20,000 cells per well) were plated into 96-well plates. After an incubation period of 24 h, the cells were pre-treated with BA derivatives for 2 h and were co-treated with LPS (1 μg/mL) for 24 h. For the LMWHAFs-induced inflammation assay, THP-1 cells were pre-treated with BA derivatives for 2 h and then treated with LPS (1 μg/mL) and HA fragment (a hyaluronan oligosaccharide 6mer; 50 μg/mL) from Amsbio (Rockville, MD, United States; product code: CSR-11002) for 24 h ([Campo et al., 2012]; [Scuruchi et al., 2016]). Subsequently, the culture medium was mixed with the Griess reagent in a 1:1 ratio followed by a 15 min incubation in the dark. An absorbance value was measured at 540 nm using a Spectramax M2 microplate reader, and the NO concentration was calculated based on the standard NO curve.

LPS-stimulated BV2 cells = experiment: NO production (Griess assay) in LPS-stimulated BV2 cells; type: cell-based, murine; details: Mus musculus, BV-2, LPS 1 μg/mL
Procedure: as §1

[2] = Cell viability of BV-2 cells; type: cell-based, murine; details: mouse, BV2 cells
Procedure: The cytotoxicity of each compound was determined in BV-2 and RAW264.7 cells with the MTT assay ([Li et al., 2020]). Briefly, cells were seeded in 96-well plates at 20,000 cells per well. Cells were allowed to adhere for 24 h. BA derivatives were prepared to 100 mM in DMSO, then diluted in serum-free media to yield concentrations of 10 µM. After the treatment of the cells with BA derivatives for 2 h, the cells were incubated in the absence or presence of LPS (1 μg/mL) for 24 h. Cellular viability was determined as a percentage of control (DMSO) by using a Cell Proliferation Kit II (Promega, Madison, WI, United States). XTT reagent (0.3 mg/mL) was then added to each well and incubated for 4 h at 37°C and an absorbance value was measured at 492 nm using a Spectramax M2 microplate reader ([Hayon et al., 2003]).

[3] = test system: HA fragment-stimulated THP-1 cells; experiment: NO production in HA fragment (LMWHAFs) stimulated THP-1 cells; type: cell-based, human; details: 10 μM, HA fragment 6mer 50 μg/mL
Procedure: as §1

[4] = test system: LPS-stimulated THP-1 cells; experiment: IL-6 by ELISA in LPS-stimulated THP-1 cells; type: cell-based, human; details: 10 μM, LPS alone 695.6 pg/mL
Procedure: To evaluate the effect of BA derivatives on LPS-induced IL-6 secretion, THP-1 monocytes were seeded at a density of 50,000 cells per well in a 48-well plate and differentiated with PMA (25 ng/mL), pre-treated with the BA derivatives at concentrations of 10 μM was performed for 6 h followed by stimulation with or without 1 μg/mL LPS for 12 h. The cell culture supernatant was collected for the measurement of IL-6. The levels of IL-6 were determined using specific ELISA kits (BioLegend, San Diego, CA, United States) ([Liu et al., 2020]).

C=C(C)[C@@H]1CC[C@]2(C(=O)O)CC[C@]3(C)[C@H](CC[C@@H]4[C@@]5(C)CC[C@H](O)C(C)(C)[C@@H]5CC[C@]43C)[C@@H]12 [BA, betulinic acid]
Reduction of LPS-stimulated NO production [1]: 20.4%
inhibition at 10 µM (LPS-stimulated BV2 cells): 3.4%
viability at 10 µM [2]: 110%
Reduction of LMWHAF-stimulated NO production [3]: 12.4%
LPS-induced secretion of IL-6 [4]: 613.3 pg/mL

C=C(C)[C@@H]1CC[C@]2(C(=O)O)CC[C@]3(C)[C@H](CC[C@@H]4[C@@]5(C)C/C(=C\c6cccc(OC)c6)C(=O)C(C)(C)[C@@H]5CC[C@]43C)[C@@H]12 [BA-09]
inhibition at 10 µM (LPS-stimulated BV2 cells): 36%

C=C(C)[C@@H]1CC[C@]2(C(=O)O)CC[C@]3(C)[C@H](CC[C@@H]4[C@@]5(C)C/C(=C\c6ccc(OC)cc6)C(=O)C(C)(C)[C@@H]5CC[C@]43C)[C@@H]12 [BA-13, (1R,3aS,5aR,5bR,7aR,11aR,11bR,13aR,13bR)-10-((E)-4-methoxybenzylidene)-5a,5b,8,8,11a-pentamethyl-9-oxo-1-(prop-1-en-2-yl)icosahydro-3aH-cyclopenta[a]chrysene-3a-carboxylic acid]
Reduction of LPS-stimulated NO production [1]: 46.4%
Decrease of NO production as compared to parent compound BA [1]: 2.1 fold
inhibition at 10 µM (LPS-stimulated BV2 cells): 33.6%
Reduction of LMWHAF-stimulated NO production [3]: 35.6%

C=C(C)[C@@H]1CC[C@]2(C(=O)O)CC[C@]3(C)[C@H](CC[C@@H]4[C@@]5(C)C/C(=C\c6cccc(C(F)(F)F)c6)C(=O)C(C)(C)[C@@H]5CC[C@]43C)[C@@H]12 [BA-11, (1R,3aS,5aR,5bR,7aR,11aR,11bR,13aR,13bR)-5a,5b,8,8,11a-pentamethyl-9-oxo-1-(prop-1-en-2-yl)-10-((E)-3-(trifluoromethyl)benzylidene)icosahydro-3aH-cyclopenta[a]chrysene-3a-carboxylic acid]
Reduction of LPS-stimulated NO production [1]: 33.4%
inhibition at 10 µM (LPS-stimulated BV2 cells): 7.7%
Reduction of LMWHAF-stimulated NO production [3]: 11.3%

C=C(C)[C@@H]1CC[C@]2(C(=O)O)CC[C@]3(C)[C@H](CC[C@@H]4[C@@]5(C)C/C(=C\c6ccccc6OC)C(=O)C(C)(C)[C@@H]5CC[C@]43C)[C@@H]12 [BA-05, (1R,3aS,5aR,5bR,7aR,11aR,11bR,13aR,13bR)-10-((E)-2-methoxybenzylidene)-5a,5b,8,8,11a-pentamethyl-9-oxo-1-(prop-1-en-2-yl)icosahydro-3aH-cyclopenta[a]chrysene-3a-carboxylic acid]
Reduction of LPS-stimulated NO production [1]: 38.5%
LPS-induced secretion of IL-6 [4]: 589.8 pg/mL

C=C(C)[C@@H]1CC[C@]2(C(=O)O)CC[C@]3(C)[C@H](CC[C@@H]4[C@@]5(C)C/C(=C\c6cc(OC)ccc6[N+](=O)[O-])C(=O)C(C)(C)[C@@H]5CC[C@]43C)[C@@H]12 [BA-03, (1R,3aS,5aR,5bR,7aR,11aR,11bR,13aR,13bR)-10-((E)-5-methoxy-2-nitrobenzylidene)-5a,5b,8,8,11a-pentamethyl-9-oxo-1-(prop-1-en-2-yl)icosahydro-3aH-cyclopenta[a]chrysene-3a-carboxylic acid]
Reduction of LPS-stimulated NO production [1]: 42.9%
Decrease of NO production as compared to parent compound BA [1]: 2.3 fold
LPS-induced secretion of IL-6 [4]: 586.0 pg/mL

C=C(C)[C@@H]1CC[C@]2(C(=O)O)CC[C@]3(C)[C@H](CC[C@@H]4[C@@]5(C)C/C(=C\c6ccccc6Br)C(=O)C(C)(C)[C@@H]5CC[C@]43C)[C@@H]12 [BA-02, (1R,3aS,5aR,5bR,7aR,11aR,11bR,13aR,13bR)-10-((E)-2-bromobenzylidene)-5a,5b,8,8,11a-pentamethyl-9-oxo-1-(prop-1-en-2-yl)icosahydro-3aH-cyclopenta[a]chrysene-3a-carboxylic acid]
LPS-induced secretion of IL-6 [4]: 586.6 pg/mL

C=C(C)[C@@H]1CC[C@]2(C(=O)O)CC[C@]3(C)[C@H](CC[C@@H]4[C@@]5(C)C/C(=C\c6cc(F)ccc6[N+](=O)[O-])C(=O)C(C)(C)[C@@H]5CC[C@]43C)[C@@H]12 [BA-04, (1R,3aS,5aR,5bR,7aR,11aR,11bR,13aR,13bR)-10-((E)-5-fluoro-2-nitrobenzylidene)-5a,5b,8,8,11a-pentamethyl-9-oxo-1-(prop-1-en-2-yl)icosahydro-3aH-cyclopenta[a]chrysene-3a-carboxylic acid]
Reduction of LPS-stimulated NO production [1]: 32.3%
LPS-induced secretion of IL-6 [4]: 539.6 pg/mL
